Experimental data from US9562033B2, “Inhibitors of viral replication, their process of preparation and their therapeutical uses” (LABORATOIRE BIODIM, priority 2012, dated 2017).

Each compound was assayed on NL4-3 strain of HIV-1 (assay: HIV-1 replication inhibition: cyto-protection of MT4 cells infected with NL4-3 virus (CellTiter-Glo viability assay)). Conditions: Human immunodeficiency virus 1, NL43, 120 h, concentration leading to 50% of cyto-protection, 5 days incubation.
Format: cell-based
Procedure, shortened: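 MT4 cells were infected with NL4-3 HIV-1 for 2 hours at 37° (moi 0.0001-0.00001), washed, then incubated 5 days at 37° with serially diluted compounds in RPMI at 0.5% DMSO final. Protection of cell viability was read as CellTiter-Glo luminescence.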

**Q.** How did the EC50 turn out when `CC(C)(C)OC(C(=O)O)c1c(C(F)(F)F)sc(-c2ccccc2)c1-c1ccc2c(c1)CCCO2` (centres unmarked) [Example 60, 2-(tert-butoxy)-2-[4-(3,4-dihydro-2H-1-benzopyran-6-yl)-5-phenyl-2-(trifluoromethyl)thiophen-3-yl]acetic acid] was run?
**A.** Its EC50 is 500 nM.

**Q.** For `COc1cc(-c2sc(C)c(C(OC(C)(C)C)C(=O)O)c2-c2ccc3c(c2)CCCO3)ccn1` (centres unmarked) [Example 84, 2-(tert-butoxy)-2-[4-(3,4-dihydro-2H-1-benzopyran-6-yl)-5-(2-methoxy-pyridin-4-yl)-2-methylthiophen-3-yl]acetic acid], which EC50 is on record?
**A.** Its EC50 is 1500 nM.

**Q.** Which EC50 does the source give for `Cc1sc(-c2ccnc(F)c2)c(-c2ccc3c(c2)CCCO3)c1C(OC(C)(C)C)C(=O)O` (centres unmarked) [Example 13, 2-(tert-butoxy)-2-[4-(3,4-dihydro-2H-1-benzopyran-6-yl)-5-(2-fluoropyridin-4-yl)-2-methylthiophen-3-yl) acetic acid] here?
**A.** Its EC50 is 150 nM.

**Q.** For `CCCNC(=O)c1cccc(-c2sc(C)c(C(OC(C)(C)C)C(=O)O)c2C2=CCC(C)(C)CC2)c1` (centres unmarked) [Example 42, 2-(tert-butoxy)-2-[4-(4,4-dimethylcyclohex-1-en-1-yl)-2-methyl-5-[3-(propylcarbamoyl)phenyl]thiophen-3-yl]acetic acid], which EC50 is on record?
**A.** Its EC50 is 40 nM.

**Q.** With `Cc1sc(-c2cnc3c(c2)CCCO3)c(-c2ccc3c(c2)CCCO3)c1C(OC(C)(C)C)C(=O)O` (centres unmarked) [Example 4, (tert-butoxy)[4-(3,4-dihydro-2H-1-benzopyran-6-yl)-2-methyl-5-{2H,3H,4H-pyrano[2,3-b]pyridin-6-yl}thiophen-3-yl]acetic acid] as the compound, how does the EC50 read?
**A.** The EC50 was 180 nM.

**Q.** How did the EC50 turn out when `Cc1sc(-c2ccncc2)c(C2=CCC(C)(C)CC2)c1C(OC(C)(C)C)C(=O)O` (centres unmarked) [Example 5, 2-(tert-butoxy)-2-[4-(4,4-dimethylcyclohex-1-en-1-yl)-2-methyl-5-(pyridin-4-yl)thiophen-3-yl]acetic acid] was run?
**A.** Its EC50 is 41 nM.

**Q.** For `Cc1ccc(-c2sc(C)c(C(OC(C)(C)C)C(=O)O)c2C2=CCC(C)(C)CC2)nc1` (centres unmarked) [Example 46, 2-(tert-butoxy)-2-[4-(4,4-dimethylcyclohex-1-en-1-yl)-2-methyl-5-(5-methylpyridin-2-yl)thiophen-3-yl]acetic acid], which EC50 is on record?
**A.** Its EC50 is 450 nM.

**Q.** With `Cc1sc(-c2ccncc2)c(C2=CCC(C)(CF)CC2)c1C(OC(C)(C)C)C(=O)O` (centres unmarked) [Example 53, [4-(4-fluoromethyl-4-methylcyclohex-1-enyl)-2-methyl-5-pyridin-4-yl-thiophen-3-yl]-tert-butoxy-acetic acid] as the compound, how does the EC50 read?
**A.** Its EC50 is 70 nM.

**Q.** How did the EC50 turn out when `CCCc1ccnc(-c2sc(C)c(C(OC(C)(C)C)C(=O)O)c2C2=CCC(C)(C)CC2)c1` (centres unmarked) [Example 71, 2-(tert-butoxy)-2-{2-methyl-4-[4,4-dimethylcyclohex-1-en-1-yl]-5-(4-(n-propyl)pyridin-2-yl)thiophen-3-yl}acetic acid] was run?
**A.** The EC50 was 1100 nM.

**Q.** `CCCc1ccc(-c2sc(C)c(C(OC(C)(C)C)C(=O)O)c2C2=CCC(C)(C)CC2)nc1` (centres unmarked) [Example 52, 2-(tert-butoxy)-2-{2-methyl-4-[4,4-dimethylcyclohex-1-en-1-yl]-5-(5-(n-propyl)pyridin-2-yl)thiophen-3-yl}acetic acid] was tested. Which EC50 did it give?
**A.** Its EC50 is 930 nM.

**Q.** `Cc1sc(-c2ccncc2)c(C2=CCC(F)(F)CC2)c1C(OC(C)(C)C)C(=O)O` (centres unmarked) [Example 28, 2-(tert-butoxy)-2-[2-methyl-4-(4,4-difluorocyclohex-1-en-1-yl)-5-(pyridin-4-yl)thiophen-3-yl]acetic acid] was tested. Which EC50 did it give?
**A.** Its EC50 is 750 nM.

**Q.** `Cc1sc(-c2cncnc2)c(-c2ccc3c(c2)CCCO3)c1C(OC(C)(C)C)C(=O)O` (centres unmarked) [Example 18, 2-(tert-butoxy)-2-[4-(3,4-dihydro-2H-1-benzopyran-6-yl)-2-methyl-5-(pyrimidin-5-yl)thiophen-3-yl]acetic acid] was tested. Which EC50 did it give?
**A.** The EC50 was 260 nM.

**Q.** For `Cc1sc(-c2ccc(C(N)=O)cc2)c(C2=CCC(C)(C)CC2)c1C(OC(C)(C)C)C(=O)O` (centres unmarked) [Example 27, 2-(tert-butoxy)-2-[5-(4-carbamoylphenyl)-4-(4,4-dimethylcyclohex-1-en-1-yl)-2-methylthiophen-3-yl]acetic acid], which EC50 is on record?
**A.** The EC50 was 90 nM.

**Q.** `Cc1sc(-c2nsc(Cl)c2C)c(C2=CCC(C)(C)CC2)c1C(OC(C)(C)C)C(=O)O` (centres unmarked) [Example 62, 2-(tert-butoxy)-2-{2-methyl-4-[4,4-dimethylcyclohex-1-en-1-yl]-5-(5-chloro-4-methyl-isothiazol-3-yl)thiophen-3-yl}acetic acid] was tested. Which EC50 did it give?
**A.** Its EC50 is 820 nM.

**Q.** `Cc1sc(-c2ccc(=O)n(C)c2)c(C2=CCC(C)(C)CC2)c1C(OC(C)(C)C)C(=O)O` (centres unmarked) [Example 30] was tested. Which EC50 did it give?
**A.** Its EC50 is 70 nM.

**Q.** Which EC50 does the source give for `Cc1sc(-c2ccc(C(N)=O)cc2)c(-c2ccc3c(c2)CCCO3)c1C(OC(C)(C)C)C(=O)O` (centres unmarked) [Example 22, 2-(tert-butoxy)-2-[5-(4-carbamoylphenyl)-4-(3,4-dihydro-2H-1-benzopyran-6-yl)-2-methylthiophen-3-yl]acetic acid] here?
**A.** Its EC50 is 300 nM.

**Q.** `CC(=O)Nc1ccc(-c2sc(C)c(C(OC(C)(C)C)C(=O)O)c2C2=CCC(C)(C)CC2)cc1` (centres unmarked) [Example 33, 2-(tert-butoxy)-2-[4-(4,4-dimethylcyclohex-1-en-1-yl)-2-methyl-5-(acetamidophen-4-yl)thiophen-3-yl]acetic acid] was tested. Which EC50 did it give?
**A.** Its EC50 is 230 nM.

**Q.** With `CCCn1cc(-c2sc(C)c(C(OC(C)(C)C)C(=O)O)c2C2=CCC(C)(C)CC2)ccc1=O` (centres unmarked) [Example 35] as the compound, how does the EC50 read?
**A.** Its EC50 is 340 nM.

**Q.** Which EC50 does the source give for `Cc1ccnc(-c2sc(C)c(C(OC(C)(C)C)C(=O)O)c2C2=CCC(C)(C)CC2)c1` (centres unmarked) [Example 72, 2-(tert-butoxy)-2-{2-methyl-4-[4,4-dimethylcyclohex-1-en-1-yl]-5-(4-methylpyridin-2-yl)thiophen-3-yl}acetic acid] here?
**A.** The EC50 was 2300 nM.

**Q.** For `Cc1sc(-c2ccc(=O)n(Cc3ccccc3)c2)c(C2=CCC(C)(C)CC2)c1C(OC(C)(C)C)C(=O)O` (centres unmarked) [Example 34], which EC50 is on record?
**A.** Its EC50 is 750 nM.

**Q.** How did the EC50 turn out when `Cc1cccnc1-c1sc(C)c(C(OC(C)(C)C)C(=O)O)c1C1=CCC(C)(C)CC1` (centres unmarked) [Example 47, 2-(tert-butoxy)-2-[4-(4,4-dimethylcyclohex-1-en-1-yl)-2-methyl-5-(3-methylpyridin-2-yl)thiophen-3-yl]acetic acid] was run?
**A.** The EC50 was 510 nM.

**Q.** Which EC50 does the source give for `Cc1sc(-c2ccc(C(=O)N(C)C)cc2)c(C2=CCC(C)(C)CC2)c1C(OC(C)(C)C)C(=O)O` (centres unmarked) [Example 76] here?
**A.** Its EC50 is 3300 nM.

**Q.** How did the EC50 turn out when `Cc1sc(-c2ccc(=O)n(C)c2)c(-c2ccc3c(c2)CCCO3)c1C(OC(C)(C)C)C(=O)O` (centres unmarked) [Example 19, 2-(tert-butoxy)-2-[4-(3,4-dihydro-2H-1-benzopyran-6-yl)-2-methyl-5-(1-methyl-6-oxo-1,6-dihydropyridin-3-yl)thiophen-3-yl]acetic acid] was run?
**A.** The EC50 was 430 nM.

**Q.** With `Cc1sc(-c2ccncc2)c(-c2ccc3c(c2)CCCO3)c1C(OC(C)(C)C)C(=O)O` (centres unmarked) [Example 3, 2-(tert-butoxy)-2-[4-(3,4-dihydro-2H-1-benzopyran-6-yl)-2-methyl-5-(pyridin-4-yl)thiophen-3-yl]acetic acid] as the compound, how does the EC50 read?
**A.** Its EC50 is 100 nM.

**Q.** `Cc1sc(-c2ncccn2)c(C2=CCC(C)(C)CC2)c1C(OC(C)(C)C)C(=O)O` (centres unmarked) [Example 49, 2-(tert-butoxy)-2-{2-methyl-4-[4,4-dimethylcyclohex-1-en-1-yl]-5-(Pyrimidin-2-yl)thiophen-3-yl}acetic acid] was tested. Which EC50 did it give?
**A.** Its EC50 is 990 nM.

**Q.** Which EC50 does the source give for `Cc1sc(-c2ccsn2)c(C2=CCC(C)(C)CC2)c1C(OC(C)(C)C)C(=O)O` (centres unmarked) [Example 58, 2-(tert-butoxy)-2-{2-methyl-4-[4,4-dimethylcyclohex-1-en-1-yl]-5-(isothiazol-3-yl)thiophen-3-yl}acetic acid] here?
**A.** The EC50 was 110 nM.

**Q.** `Cc1sc(-c2cccnc2)c(-c2ccc3c(c2)CCCO3)c1C(OC(C)(C)C)C(=O)O` (centres unmarked) [Example 8, 2-(tert-butoxy)-2-[4-(3,4-dihydro-2H-1-benzopyran-6-yl)-2-methyl-5-(pyridin-3-yl)thiophen-3-yl)acetic acid] was tested. Which EC50 did it give?
**A.** The EC50 was 270 nM.

**Q.** Which EC50 does the source give for `Cc1sc(-c2cnn(Cc3ccccc3)c2)c(-c2ccc3c(c2)CCCO3)c1C(OC(C)(C)C)C(=O)O` (centres unmarked) [Example 80, 2-[5-(1-benzyl-1H-pyrazol-4-yl)-4-(3,4-dihydro-2H-1-benzopyran-6-yl)-2-methylthiophen-3-yl]-2-(tert-butoxy)acetic acid] here?
**A.** Its EC50 is 6200 nM.

**Q.** How did the EC50 turn out when `Cc1sc(-n2cccn2)c(-c2ccc3c(c2)CCCO3)c1C(OC(C)(C)C)C(=O)O` (centres unmarked) [Example 85, 2-(tert-butoxy)-2-[4-(3,4-dihydro-2H-1-benzopyran-6-yl)-2-methyl-5-(1H-pyrazol-1-yl)thiophen-3-yl]acetic acid] was run?
**A.** Its EC50 is 1900 nM.
